These results are taken from patent EP3501490A1, “COMPOSITION FOR EXTERNAL USE THAT INCLUDES PTEROSTILBENE GLYCOSIDE” (Tomoike Industrial (H.K.) Limited, priority 2016, dated 2018).

Each structure is given as a SMILES string.

The test system of one assay is type IV collagen. Description: Type IV collagen protein expression in three-dimensional skin model by western blotting and densitometry (Experimental Examples 2 and 5). Format: cell-based. The note with it: Homo sapiens, 168 h; 25 µM and 100 µM final concentrations, 7 days; at most (maximum), concentration dependent; α-tubulin internal standard; read-out: increase of the amount of type IV collagen expression in the three-dimensional skin model compared to the control. For orientation: A western blot detects proteins with antibodies after separation by electrophoresis.

The next assay relates to type IV collagen gene. Description: Type IV collagen mRNA expression in human skin cells by microarray method (Experimental Example 1). Type of assay: cell-based. The note with it: 120 h, cultured for 5 days, hTERT-immortalized human skin cells, read-out: increase of the expression amount of type IV collagen gene compared to the negative control experiment. How it is done:
Human skin cells were immortalized by introducing the hTERT gene and acclimated in a predetermined medium, Prigrow III (APB). Thereafter, the pterostilbene monoglucoside (50 µM) was added to the conditioned medium and cultured for 5 days in a 5% CO2 environment at 37°C.
RNA was collected from the cells after culturing, and changes in the amount of type IV collagen mRNA expression were analyzed by microarray method. […] A negative control experiment was also performed in which the pterostilbene monoglucoside was not added to the conditioned medium.

Assay [1] addresses T1, Tyrosinase (Cat. No. T3824, SIGMA) (Agaricus bisporus, UniProt C7FF04).
T1 construct: purchased SIGMA T3824
Description: In vitro tyrosinase inhibition experiment (Experimental Example 3). Format: biochemical. The settings on record: fold more excellent than the aglycone pterostilbene, based on IC50 values of Fig. 3. How it is done:
The tyrosinase inhibitory effect of pterostilbene monoglucoside was analyzed (IC50 values were measured) based on a generally known method (e.g., Expert Opin Ther Pat. 2016; 26(3): 347-62). Tyrosinase (Cat. No. T3824, SIGMA) was used as tyrosinase. Further, pterostilbene (produced by Tokyo Chemical Industry Co., Ltd.; A in the figure), the pterostilbene monoglucoside above (B in the figure), and arbutin as a positive control (C in the figure) were used.

T1 sequence (C7FF04 2-392 limits assumed): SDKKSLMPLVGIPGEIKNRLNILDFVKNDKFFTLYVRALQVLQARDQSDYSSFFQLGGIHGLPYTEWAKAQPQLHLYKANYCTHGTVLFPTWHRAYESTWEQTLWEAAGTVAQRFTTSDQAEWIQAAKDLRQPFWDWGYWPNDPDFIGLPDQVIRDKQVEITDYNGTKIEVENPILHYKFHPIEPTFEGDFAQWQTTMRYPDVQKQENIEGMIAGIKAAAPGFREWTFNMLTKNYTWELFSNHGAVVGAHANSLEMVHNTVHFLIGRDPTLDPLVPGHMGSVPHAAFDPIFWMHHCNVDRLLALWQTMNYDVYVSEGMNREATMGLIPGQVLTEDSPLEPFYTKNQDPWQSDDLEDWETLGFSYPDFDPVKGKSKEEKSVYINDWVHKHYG

Regarding `COc1cc(/C=C/c2ccc(OC3O[C@H](CO)[C@@H](O)[C@H](O)[C@H]3O)cc2)cc(OC)c1` (stereo partly drawn) [pterostilbene monoglucoside], in the assay with type IV collagen, the maximal fold induction is around 2.5. The fold induction at 50 µM with type IV collagen gene was around 1.35. Also, the “tyrosinase inhibitory effect relative to pterostilbene (comparison of IC50 values)” value in assay [1] is around 5.5 times.
